One series relates to p21, Bim, CDT1. Nature of the series: Western blotting of cullin 1 and 4A CRL substrates in cells. The class given is cell-based. The following applies: western blot, 24 h. From the text:
(§1) Treated cells were lysed by RIPA buffer supplemented with protease and phosphatase inhibitors. The expression level of indicated proteins was examined by immunoblotting analysis. GAPDH was used as the loading control.
Background: In western blotting, separated proteins are transferred to a membrane and probed.

The next series deals with neddylation of cullin 3. In words: Western blotting of neddylated and un-neddylated cullin 3 in cells. The format is cell-based. The conditions noted are these: THLE2 liver cells.
Source text: as §1

Series [1] concerns THLE2 cells and five additional cancer cell lines. In words: Cell viability, WST assay, panel of 6 cell lines. The class given is cell-based.
Another series deals with T1, DCN4 (Homo sapiens, UniProt Q92564).
T1 construct: DCN2 (residues 62–259), DCN3 (residues 86–304), DCN4 (residues 102–292) and DCN5 (residues 47–237); His6-TEV (N, cleaved yes); made in house; host or cells: Rosetta2 cells (E. coli)
T1 sequence (Q92564 102-292): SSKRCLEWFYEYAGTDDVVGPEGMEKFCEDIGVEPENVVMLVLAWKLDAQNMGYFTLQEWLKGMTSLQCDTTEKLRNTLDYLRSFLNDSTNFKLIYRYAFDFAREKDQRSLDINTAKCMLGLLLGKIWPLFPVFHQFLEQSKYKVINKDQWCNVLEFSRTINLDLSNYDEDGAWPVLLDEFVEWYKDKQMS
Nature of the series: Label-free BLI assay, DCN4. The format is binding. The following applies: concentrations up to 10 µM.

The nature of series [2]: Equilibrium aqueous solubility, small-scale shake-flask method. The following applies: for solubility at 24 h: thermodynamic from solid.
Method: The equilibrium aqueous solubility of an individual compound at different pH values was determined with a small-scale shake-flask method in Eppendorf tubes. Compounds were added as powder in excess to Britton-Robinson buffer at pH 2.0 or phosphate buffer at pH 7.4 until heterogeneous suspensions were obtained. Suspensions containing excessive compound powder were sonicated in a water bath for 30 min followed by incubation at room temperature with shaking for 24 h to achieve thermodynamic equilibrium. […] Supernatants obtained were filtered using Millipore MultiScreen filter plates equipped with 0.45 µm membranes. Compound concentrations in the saturated solutions were measured by UV spectroscopy at the maximum absorption wavelengths of each compound that were pre-determined by a spectrum scan.
Another series relates to NRF2 mRNA. In words: qRT-PCR of NRF2 mRNA in THLE2 cells. The format is cell-based. The following applies: THLE2, 10 µM. An excerpt:
(§2) Total RNA in treated cells was isolated with the RNeasy Mini Kit (Qiagen, Germantown, MD). RNA was reverse transcribed into complementary DNA (cDNA) using high capacity RNA-to-cDNA kit (Applied Biosystems, Carlsbad, California). […] GAPDH was used as an internal reference. […] Error bars correspond to SD from three independent experiments.

The subject of series [3] is neddylation of cullin 1 and other cullins. Nature of the series: Western blotting of neddylated and un-neddylated cullin 1 and other cullins in cells. The class given is cell-based. The conditions noted are these: for effect on neddylation of cullin 1, time course (in words): THLE2 liver cells, up to 24 h, DI-591 10 µM, MLN4924 0.3 µM.
Source text: as §1

For a further series, the target named is T2, DCN3 (Homo sapiens, UniProt Q8IWE4).
T2 construct: DCN2 (residues 62–259), DCN3 (residues 86–304), DCN4 (residues 102–292) and DCN5 (residues 47–237); His6-TEV (N, cleaved yes); made in house; host or cells: Rosetta2 cells (E. coli)
T2 sequence (Q8IWE4 86-304): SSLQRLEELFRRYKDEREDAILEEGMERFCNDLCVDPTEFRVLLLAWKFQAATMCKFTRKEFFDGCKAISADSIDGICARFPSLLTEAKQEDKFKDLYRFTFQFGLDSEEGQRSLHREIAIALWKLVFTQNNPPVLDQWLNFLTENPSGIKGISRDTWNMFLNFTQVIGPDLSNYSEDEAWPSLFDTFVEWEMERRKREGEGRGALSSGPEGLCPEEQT
Nature of the series: Label-free BLI assay, DCN3. The class given is binding. The conditions noted are these: concentrations up to 10 µM.

Another series deals with T3, DCN5 (Homo sapiens, UniProt Q9BTE7).
T3 construct: DCN2 (residues 62–259), DCN3 (residues 86–304), DCN4 (residues 102–292) and DCN5 (residues 47–237); His6-TEV (N, cleaved yes); made in house; host or cells: Rosetta2 cells (E. coli)
T3 sequence (Q9BTE7 47-237): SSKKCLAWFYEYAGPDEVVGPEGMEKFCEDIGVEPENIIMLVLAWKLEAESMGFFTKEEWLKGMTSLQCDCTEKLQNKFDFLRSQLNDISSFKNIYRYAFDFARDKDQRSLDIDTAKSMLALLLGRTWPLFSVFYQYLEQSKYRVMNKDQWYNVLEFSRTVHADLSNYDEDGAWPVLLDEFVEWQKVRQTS
In words: Label-free BLI assay, DCN5. The format is binding. The following applies: concentrations up to 10 µM.

For a further series, the system named is NQO1 and HO1 mRNA. Nature of the series: qRT-PCR of NRF2-regulated genes in THLE2 cells. The following applies: THLE2, 10 µM. The class given is cell-based.
Source text: as §2
A general note: In qPCR the cycle at which signal appears reflects the starting amount.

Another series concerns the target T4, NEDD8 E1 (APP-BP1/Uba3) (Homo sapiens, UniProt Q8TBC4).
T4 construct: purchased Boston Biochem
T4 sequence (Q8TBC4 1-463): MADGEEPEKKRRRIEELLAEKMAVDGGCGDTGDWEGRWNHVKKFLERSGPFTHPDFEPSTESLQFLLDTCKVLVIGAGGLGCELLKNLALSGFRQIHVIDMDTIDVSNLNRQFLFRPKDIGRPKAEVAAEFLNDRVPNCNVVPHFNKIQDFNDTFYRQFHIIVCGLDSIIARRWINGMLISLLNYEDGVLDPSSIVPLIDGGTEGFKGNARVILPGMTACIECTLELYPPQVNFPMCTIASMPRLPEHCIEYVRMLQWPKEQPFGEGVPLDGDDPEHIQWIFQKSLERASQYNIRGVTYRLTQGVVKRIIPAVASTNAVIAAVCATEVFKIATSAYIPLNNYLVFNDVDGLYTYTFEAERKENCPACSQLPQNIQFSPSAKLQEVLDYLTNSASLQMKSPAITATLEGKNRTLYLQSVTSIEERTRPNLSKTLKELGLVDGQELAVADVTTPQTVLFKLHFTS
T4 sequence (Q13564 1-534 partner): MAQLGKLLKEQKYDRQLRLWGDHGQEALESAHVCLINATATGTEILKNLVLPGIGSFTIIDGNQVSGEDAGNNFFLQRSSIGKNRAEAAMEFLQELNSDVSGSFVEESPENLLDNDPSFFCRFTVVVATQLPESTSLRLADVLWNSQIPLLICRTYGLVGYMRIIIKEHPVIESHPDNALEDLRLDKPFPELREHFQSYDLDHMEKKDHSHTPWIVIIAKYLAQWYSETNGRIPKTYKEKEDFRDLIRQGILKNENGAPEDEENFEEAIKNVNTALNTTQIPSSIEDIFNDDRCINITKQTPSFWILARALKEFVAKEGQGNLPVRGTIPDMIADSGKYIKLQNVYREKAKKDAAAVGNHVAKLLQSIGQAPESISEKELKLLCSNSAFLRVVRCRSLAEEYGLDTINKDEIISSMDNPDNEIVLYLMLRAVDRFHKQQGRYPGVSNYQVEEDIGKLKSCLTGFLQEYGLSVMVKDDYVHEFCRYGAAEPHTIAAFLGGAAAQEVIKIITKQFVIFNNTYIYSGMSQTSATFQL
In words: In vitro UBC12~NEDD8 thioester forming assay. The format is biochemical. The following applies: DI-591 at concentrations up to 100 µM. On the procedure: NEDD8, NEDD8 E1 (APP-BP1/Uba3) and UBC12 proteins were purchased from Boston Biochem. NEDD8 (10 μM), NEDD8 E1 (25 nM), and UBC12 (2 μM) were incubated in Tris-HCl (pH 7.4, 50 mM), MgCl2 (5 mM), DTT (0.5 mM) and BSA (0.1 mg/ml), with a tested compound at 25 °C for 10 min. Reactions were initiated by addition of 2 mM ATP (or distilled H2O) and ran for 5 min at 25 °C. 1 M DTT (or distilled H2O) was added to the reaction mixtures which were then kept on ice for 1 min followed by addition of SDS loading buffer (without DTT). The products were separated by SDS–PAGE, visualized by Coomassie stain and quantified by ImageLab (Bio-Rad).
1 Supplementa ry Figure 3:
3 Supplementary Figure 3. In vitro U BC12~N EDD8 thio ester forming assay.N EDD8,
4 NEDD8 E1 (APP -BP 1/Uba3) and UBC12 were purchased from Boston Biochem. 10μ M
5 NEDD8, 25nM N EDD8 E1,and 2μ M UBC12 were incubated in 50mM Tris-HCl (pH 7.4), 5mM
6 M gC l 2, 0.5mM DTT, and 0.1mg/ml BSA, with indicated compounds at 25℃ for 10min.
7 Reactions were initiated by addition o f 2mM ATP (or dH2O) and w ere run for 5min at 25℃ .
8 Reaction mixtures were t hen added with 1M DTT (or dH 2O) and kept on ice for 1min followed
9 by addition of SDS Loading buffer (without DTT). The products were s eparated b y SDS-PAGE,
10 visualized by Coomassie stain and quantified using an ImageLab imager ( Bio-Rad). […]

The subject of the next series is NRF2. In words: Western blotting of NRF2 protein in cells. The class given is cell-based. The conditions noted are these: western blot, 24 h.
Source text: as §1

The subject of the next series is KYSE70. Nature of the series: Cell viability, WST assay, KYSE70. The conditions noted are these: Homo sapiens, KYSE-70, 96 h; KYSE70, t = 4 d. The class given is cell-based. As to the method:
(§3) Supplementary Figure 8: 1
(§4) […] in a panel of 6 cell lines. (a) The indicated cell lines were treated with MLN4924, 4
(§5) Cell viability was determined with a WST assay. (b) The 5
(§6) was determined with a WST assay. 7

In a further series the test system is THLE2. Nature of the series: Cell viability, WST assay, THLE2. The format is cell-based. The following applies: Homo sapiens, THLE-2, 96 h; THLE2, t = 4 d. As to the method: as §3, §4, §5, §6
The next series concerns KYSE140. In words: Cell viability, WST assay, KYSE140. The format is cell-based. The conditions noted are these: Homo sapiens, KYSE-140, 96 h; KYSE140, t = 4 d. On the procedure:
as §3, §4, §5, §6

Structures are written as SMILES. Entries after “also recorded” stand apart in the source; their conditions may differ. A value given as a limit tells only on which side of the number the result lay.

One may read the solubility as the concentration that dissolves in the medium under given conditions. Turning to `CCC(=O)N[C@@H](Cc1nc2ccc(C(C)C)cc2s1)C(=O)N[C@H](CNC(=O)CCN1CCOCC1)C1CCCCC1` [DI-591], the “protein levels of p21, Bim and CDT1 (in words)” value in the series with p21, Bim, CDT1 is given as “no or minimal effect”. For the same molecule, the “time to complete depletion of neddylated cullin 3” value in the series on neddylation of cullin 3 (DI-591 at 10 µM) is recorded as no more than 5 min. For the same molecule, the “cytotoxicity (in words)” value in series [1] (DI-591 at concentrations up to 20 µM) is reported as “no significant cytotoxicity”. Besides, at DCN4, the “binding to DCN4 (in words)” value is “no appreciable binding”. The “aqueous solubility (in words)” value in [2] was “excellent”. In addition, the solubility at 24 h in [2] (Britton-Robinson buffer, pH 2, aqueous buffer) was greater than 20 mM; in [2] (Britton-Robinson buffer, pH 2.02, aqueous buffer), greater than 20 mM; in series [2] (phosphate buffer, pH 7.4, aqueous buffer), greater than 20 mM. Moreover, in the series on NRF2 mRNA, the “mRNA level of NRF2 (in words)” value is listed as “no effect”. Moreover, in series [3], the “effect on neddylation of cullin 1, time course (in words)” value is “no effect”. Besides, on DCN3, the “binding to DCN3 (in words)” value was “no appreciable binding”. For the same molecule, the “binding to DCN5 (in words)” value at DCN5 is reported as “no appreciable binding”. Besides, in the series with NQO1 and HO1 mRNA, the “mRNA levels of NQO1 and HO1 (in words)” value is reported as “robustly increases”. Besides, the “inhibition of UBC12 neddylation (E1 activity), in words” value against NEDD8 E1 (APP-BP1/Uba3) is given as “no such effect”. In addition, the “NRF2 protein level (in words)” value in the series with NRF2 is “dose dependently increases”.
For orientation: IC50 means the concentration that inhibits the measured activity by half. The term EC50 denotes the concentration at which the effect is half-maximal. Read a low EC50 as greater potency. In the case of `NS(=O)(=O)OC[C@@H]1C[C@@H](n2ccc3c(N[C@H]4CCc5ccccc54)ncnc32)C[C@@H]1O` [MLN4924], in the series with p21, Bim, CDT1, the “protein levels of p21, Bim and CDT1 (in words)” value is recorded as “induces accumulation”. Also, the “effect on neddylation of cullin 3, time course (in words)” value with neddylation of cullin 3 (up to 24 h, MLN4924 0.3 µM) is recorded as “effective”. Moreover, the IC50 in series [1] (Homo sapiens, THLE-2, 6 different cell lines, read-out: IC50, inhibition of cell viability) was in the range of 50 to 350 nM. In addition, the EC50 stood at 356 nM in the series with KYSE70, 53.4 nM in the series on THLE2 and 65.4 nM in the series with KYSE140. In addition, in [3], the “effect on neddylation of cullin 1, time course (in words)” value is listed as “effective”. For the same molecule, in [3] (all cullins examined, panel of six cell lines, 24 h), the “concentrations that effectively suppress neddylation of all cullins examined” value lay in the range of 10 to 300 nM. For the same molecule, the “inhibition of UBC12 neddylation (E1 activity), in words” value against NEDD8 E1 (APP-BP1/Uba3) was “effectively inhibits”. Further, the “NRF2 protein level (in words)” value with NRF2 is given as “induces accumulation; also recorded: much stronger upregulation”.

These data come from article PMC5658359, “A potent small-molecule inhibitor of the DCN1-UBC12 interaction that selectively blocks cullin 3 neddylation” (Nature Communications, 2017).
